Results published in patent US7531329B2, “Carbonyl reductase, gene thereof and method of using the same” (Kaneka Corporation, priority 2002, dated 2009).

test system: reductase RDR; experiment: Substrate specificity of the reductase RDR (NADH oxidation, decrease in absorbance at 340 nm); format: biochemical, Devosia riboflavina IFO 13584; conditions: substrate 1 mM, NADH 0.25 mM, 100 mM phosphate buffer pH 6.5, 0.33% (v/v) dimethyl sulfoxide, 30° C.

Compound | % activity (relative value, activity to N-benzyl-3-pyrrolidinone taken as 100%)
CC(=O)c1ccncc1 [4-acetylpyridine] | 6448%
CCC(C)=O [2-butanone] | 280%
CC(=O)C=O [methyl glyoxal] | 345%
CC(=O)CC(C)=O [acetylacetone] | 1354%
CC(=O)c1cccc(O)c1 [m-hydroxyacetophenone] | 61%
CCOC(=O)C(Cl)C(=O)c1ccccc1 (stereo not drawn) [ethyl 2-chloro-3-oxo-3-phenyloropionate] | 52%
O=Cc1ccccc1Cl [o-chlorobenzaldehyde] | 9%
O=C(CCl)c1cccc(Cl)c1 [2-chloro-1-(3′-chlorophenyl)ethanone] | 463%
CC(=O)CCC(=O)O [levulinic acid] | 11%
O=Cc1ccncc1 [pyridine-4-aldehyde] | 441%
CCOC(=O)CC(=O)COCc1ccccc1 [ethyl 4-benzyloxyacetoacetate] | 3186%
CC(=O)c1ccccc1 [acetophenone] | 181%
CC(=O)CO [hydroxyacetone] | 100%
CC(C)=O [acetone] | 194%
CCOC(=O)C(C)C(C)=O (stereo not drawn) [ethyl 2-methylacetoacetate] | 239%
CCOC(=O)CC(=O)c1ccccc1 [ethyl benzoylacetate] | 98%
O=Cc1ccc(Cl)cc1 [p-chlorobenzaldehyde] | 117%
CCOC(=O)C(C)=O [ethyl pyruvate] | 6232%
O=Cc1cccc(Cl)c1 [m-chlorobenzaldehyde] | 301%
CCCCCC(C)=O [2-heptanone] | 2777%
COc1ccc2c(c1)CCC(=O)C2 [6-methoxy-2-tetoralone] | 156%
CCOC(=O)CC(=O)COC(C)=O [ethyl 4-acetoxyacetoacetate] | 4234%
O=CCCc1ccccc1 [3-phenylpropionaldehyde] | 685%
CCOC(=O)C1CCC(=O)C1 (stereo not drawn) [ethyl 3-oxocyclopentane carboxylate] | 87%
COc1cc2c(cc1OC)CC(=O)CC2 [6,7-dimethoxy-2-tetoralone] | 2267%

Compound | % activity (relative value, activity to N-benzyl-3-pyrrolidinone taken as 100%)
O=C(CO)c1ccccc1 [2-hydroxyacetophenone] | 30%
CCOC(=O)CC(=O)CBr [ethyl 4-bromoacetoacetate] | 4099%
CCOC(=O)CC(=O)CCl [ethyl 4-chloroacetoacetate] | 683%
CCOC(=O)CC(=O)CN=[N+]=[N-] [ethyl 4-azideacetoacetate] | 804%
CC(C=O)c1ccccc1 (stereo not drawn) [2-phenylpropionaldehyde] | 706%
COc1ccc(C(C)=O)cc1OC [3,4-dimethoxyacetophenone] | 2073%
CCC(=O)CC [diethyl ketone] | 32%
CC(=O)C1CC1 [cyclopropyl methyl ketone] | 20%
CCOC(=O)C(Cl)C(C)=O (stereo not drawn) [ethyl 2-chloroacetoacetate] | 8907%
CC(=O)CCc1ccccc1 [benzylacetone] | 410%
O=CCCCC=O [glutaraldehyde] | 1339%
CCCC=O [n-butylaldehyde] | 728%
CCC(=O)c1ccccc1 [propiophenone] | 27%
CC(=O)c1ccccn1 [2-acetylpyridine] | 13%
O=C(c1ccccc1)C(O)c1ccccc1 (stereo not drawn) [benzoin] | 13%
CC(=O)CCO [4-hydroxy-2-butanone] | 33%
CC(=O)CC(=O)OC(C)(C)C [tert-butyl acetoacetate] | 5634%
CCCCCCCCC(=O)C(=O)OCC [ethyl 2-oxodecanoate] | 18%
CCCCCC=O [n-hexylaldehyde] | 2225%
CC(=O)c1cccc([N+](=O)[O-])c1 [m-nitroacetophenone] | 6927%
CCCCC(C)=O [2-hexanone] | 5043%
C=CC(C(C)=O)C(=O)OCC (stereo not drawn) [ethyl 2-eteneacetoacetate] | 429%
CC(=O)c1ccc(Cl)cc1 [p-chloroacetophenone] | 2354%
CCC=O [propionaldehyde] | 204%
CCOC(=O)CC(C)=O [ethyl acetoacetate] | 4236%

Compound | % activity (relative value, activity to N-benzyl-3-pyrrolidinone taken as 100%)
O=Cc1ccccc1 [benzaldehyde] | 21%
COc1ccc2c(c1)CC(=O)CC2 [7-methoxy-2-tetoralone] | 7084%
O=C1CCc2ccccc2C1 [2-tetoralone] | 1721%
O=C1CCN(Cc2ccccc2)C1 [N-benzyl-3-pyrrolidinone] | 100%
COC(=O)C(C)=O [methyl pyruvate] | 1889%
CCOC(=O)CC(=O)CO [ethyl 4-hydroxyacetoacetate] | 1774%
CC(=O)CC(=O)OCc1ccccc1 [benzyl acetoacetate] | 2015%
CC(=O)c1cccnc1 [3-acetylpyridine] | 788%
CCCCCCCCOC(=O)CC(=O)CCl [n-octyl 4-chloroacetoacetate] | 224%
CC(=O)CC(C)C [4-methyl-2-pentanone] | 962%
O=Cc1ccccc1[N+](=O)[O-] [o-nitrobenzaldehyde] | 33%
CC1(C)COC(=O)C1=O [dihydro-4,4-dimethyl-2,3-furandione] | 1314%
O=C1CCCC1 [cyclopentanone] | 103%
CC(=O)c1ccc(C)cc1 [p-methylacetophenone] | 521%
CCC(=O)C(=O)O [2-keto-n-butyric acid] | 15%
COC(=O)CC(C)=O [methyl acetoacetate] | 8341%
O=Cc1ccccn1 [2-pyridinecarbaldehyde] | 82%
CC(=O)C(C)=O [diacetyl] | 1614%
O=C(O)CC(=O)C(=O)O [oxalacetic acid] | 14%
CCC(=O)Cc1ccccc1 [1-phenyl-2-butanone] | 147%
O=Cc1cccc([N+](=O)[O-])c1 [m-nitrobenzaldehyde] | 683%
CC(=O)c1ccc[nH]1 [2-acetylpyrrole] | 70%
O=Cc1ccc([N+](=O)[O-])cc1 [p-nitrobenzaldehyde] | 1296%
CC(=O)c1ccc(F)cc1 [4-fluoroacetophenone] | 366%

test system: not listed separately; experiment: Determination of enzyme properties of purified RDR; format: biochemical; conditions: N-benzyl-3-pyrrolidinone 5 mM, coenzyme 0.25 mM, pH 6.5, 30° C.
Experimental: RDR obtained in Example 1 was investigated as to its enzymatic properties. Fundamentally, the enzyme activity was measured by adding the substrate N-benzyl-3-pyrrolidinone (5 mM), the coenzyme […] (0.25 mM) and the enzyme to 100 mM phosphate buffer (pH 6.5), allowing the reaction to proceed at 30° C. for 1 minute, and then measuring the decrease in absorbance at a wavelength of 340 nm.
In the presence of NADH as a coenzyme, the enzyme acted on N-benzyl-3-pyrrolidinone to form (R)-N-benzyl-3-pyrrolidinol with an optical purity of 99.9% ee or more. The enzyme activity measured with NADPH as a coenzyme by the above method was about 0.6% of the activity obtained by using NADH as a coenzyme.
Enzyme activity measurements were carried out by the same enzyme activity measurement method as mentioned above except that the pH was varied in the range of 4.0 to 8.0 using, as the buffer, 100 mM phosphate buffer and 100 mM acetate buffer.
Enzyme activity measurements were carried out by the same enzyme activity measurement method as mentioned above except that the temperature was varied from 20° C. to 60° C.

Compound | enzyme activity with NADPH as a coenzyme relative to the activity with NADH as a coenzyme
RDR: purified enzyme from Devosia riboflavina IFO 13584 stereoselectively reducing N-benzyl-3-pyrrolidinone to (R)-N-benzyl-3-pyrrolidinol | about 0.6%
